Tested on: C. sporogenes spores ATCC 3584
Test: In-vitro experiment to evaluate ability of test formulations to remove spores from skin like surfaces (Vitro-Skin, finger bag collection method)
Conditions: for log reduction of spores (in words): higher concentrations (1%)
Excerpt: The in-vitro method was designed to evaluate the removal of microbes from skin using a synthetic skin material from the cosmetic industry, Vitro-skin from IMS inc, Portland METhis method enables rapid screening of formulations for their propensity to promote release of microbes from skin and may be predictive of in-vivo activity.
The following materials were utilized. C. sporogenes spores ATCC 3584˜1.0×10^8 CFU/ml; Triton-X 100 sampling buffer (pH 7.4) Filter Sterilized: 0.4 g KH2PO4, 10.1 g Na2HPO4, 1 g Triton-X 100, and 1 L dH2O; D/E neutralizing broth; Fingers from disposable polyethylene gloves (VWR 32915-268); Sterile dH2O (WFI quality water); 3M AC Petrifilm; and 5 ml Falcon tubes; 1.5 ml EPI Centrifuge tubes; Petri Dishes; Vitro-Skin IMS Inc.; and double-sided tape.
The method included the following. Punched-out specified number of Vitro-Skin samples using the ¾″ punch. Attached punch-out Vitro-Skin samples to a Petri-dish or any other sterile flat surface using double-sided tape. Contaminated the Vitro-Skin samples accordingly with 10 μl of spores/spore prep (˜1×10^6 CFU/Sample). Used the pipette tip to spread spores over the surface and used a new pipette tip for each sample. Allowed the samples to dry (˜40 minutes). Placed three samples directly into separate finger bags containing 3 ml of triton-x 100 sampling solution or D/E neutralizing broth if one of the samples going to be tested contains antimicrobials. Used the “Finger bag collection method” below for each of the three recovery controls.
The Finger bag collection method was carried out as follows. First, a finger bag was cut from disposable gloves.
For the controls: Filled the finger bag with 3 ml of sampling solution. Placed contaminated Vitro-Skin sample into the finger bag containing sampling solution. Massaged finger bag for 1 minute using thumb and index finger. Removed aliquot of fluid from the finger bag and place into an appropriately labeled 1.5 ml centrifuge tube.
For the tested samples: Placed contaminated Vitro-Skin sample into a finger bag containing 3 ml of appropriate test solution. Massage in finger bag for 20 seconds. Removed the Vitro-Skin sample from the finger bag and place into a new finger bag containing 3 ml of sampling solution (Triton x-100 glove juice buffer or D/E neutralizing broth). Collected sample by using the finger bag collection method noted above. Repeat “Placed contaminated vitro-skin sample . . . ” to “Collected sample . . . ” for each of the test solutions.
For best statistical data each test solution was repeated 3 times. Heat treated appropriately labeled 1.5 ml centrifuge tubes containing aliquots of solution for 20 min at 80 C. Serially diluted samples in butterfield's buffer and plate 10^-1 to 10^-4 dilution on AC Petrifilm. Heat shocked, diluted, and plated spore stock day of experiment. Incubated Petrifilm in an anaerobic chamber at 37 C for 20-24 hours. Counted plates and analyzed data.

[1] = Example 3, added to water, all concentrations

| Compound | log reduction of spores (in words) (Example 3) | spore removal (in words) [1] | further results |
| --- | --- | --- | --- |
| Oc1cc(Cl)ccc1Oc1ccc(Cl)cc1Cl [Triclosan, 5-chloro-2-(2,4-dichlorophenoxy)phenol] | good log reduction of spores | – | – |
| N=C(NCCCCCCNC(=N)NC(=N)Nc1ccc(Cl)cc1)NC(=N)Nc1ccc(Cl)cc1.O=C(O)[C@H](O)[C@@H](O)[C@H](O)[C@H](O)CO.O=C(O)[C@H](O)[C@@H](O)[C@H](O)[C@H](O)CO [chlorhexidine gluconate, Chlorhexidine gluconate] | – | poor spore removal | spore removal (in words) (Example 6, Tables 6a/6b): poor spore removal |
| CCCCCCCCN=c1ccn(CCCCCCCCCCn2ccc(=NCCCCCCCC)cc2)cc1.Cl.Cl [octinidine, N,N′-(decane-1,10-diyldipyridin-1-yl-4-ylidene)dioctan-1-amine dihydrochloride] | – | – | spore removal (in words) (Example 3, higher concentration): unaffected |
| benzalkonium chloride | – | poor spore removal | – |
| Cc1cc(O)cc(C)c1Cl [PCMX, 4-chloro-3,5-dimethylphenol] | good log reduction of spores | – | – |

— US11634666B2, “Methods for spore removal comprising a polysorbate surfactant and cationic antimicrobial mixture” (3M INNOVATIVE PROPERTIES COMPANY, priority 2015, dated 2023)
